Literature values, collected in patent US20040115233A1, “Composition for improving skin environment and clothes thereof” (priority 2001, published 2004).

Key:
microorganisms = details: among components of tea tree oil
[1] = system: patients with atopic diseases

| Structure (SMILES) | antibacterial action (microorganisms) | alleviating itching ([1]; patients with mild to medium atopic diseases (127 children and 240 adults)) | serious cases in which the disease was improved ([1]; serious cases) |
| --- | --- | --- | --- |
| Cc1ccc(C(C)C)cc1 [paracimene] | some antibacterial actions | – | – |
| CC1=CC=C(C(C)C)CC1 [α-terpinene] | some antibacterial actions | – | – |
| CC1=CCC(C(C)(C)O)CC1 (stereo not drawn) [α-terpineol] | some antibacterial actions | – | – |
| CCCCCC=CCC=CCC=CCCCCC(=O)O [γ-linolenic acid, 6,9,12-octadecatrienic acid] | – | effective for alleviating itching | 116 of 179 |
| CC1=CCC(C(C)C)=CC1 [γ-terpinene] | some antibacterial actions | – | – |
